Earlier results, collected in patent US20040110781A1 (priority 2002, published 2004).

Tested on: excitory opioid receptors on sensory neurons

SMILES: C[C@@H](NC(=O)[C@@H](N)Cc1ccc(O)cc1)C(=O)NCC(=O)N[C@@H](Cc1ccccc1)C(=O)NNC(=O)[C@H](Cc1ccccc1)NC(=O)CNC(=O)[C@@H](C)NC(=O)[C@@H](N)Cc1ccc(O)cc1 [biphalin]
- action on excitory opioid receptor functions: selective antagonists of excitory opioid receptors functions
